Laboratory results: patent US20190367448A1, “TREATMENT OF SLEEP-WAKE DISORDERS” (SK Biopharmaceuticals Co., Ltd., priority 2005, published 2019)

Test system: male adult Sprague Dawley rats
Experiment: Sleep-wake organization in rats, polysomnographic recording (EEG, EOG, EMG, body movement) for 16 hours after acute i.p. administration
Assay type: in vivo, rat
Conditions: for Duration (min) Active wake / Duration (min) Deep sleep / Duration (min) Light sleep / Duration (min) Passive wake / Duration (min) REM sleep / Duration (min) intermediate stage / ISWS/TST (%) / Latency (min) ISWS / Latency (min) REM sleep / Latency (min) dSWS / REMS/TST (%) / Shifts (number) Shift from ISWS to AW / Shifts (number) Shift from ISWS to PW / Shifts (number) Shift from REMS to AW / Shifts (number) Shift from REMS to PW / Shifts (number) Shift from dSWS to AW / Shifts (number) Shift from dSWS to PW / Total sleep time TST / dSWS/TST (%): 16 hours recording period; for change in mean duration of REM sleep stage / change in number of REM sleep epochs / change in number of active wake epochs / change in number of deep sleep epochs / change in number of light sleep epochs / change in total time spent in REM sleep / change in total time spent in active wakefulness / change in total time spent in deep (rebound) sleep / change in total time spent in light sleep / change in mean duration of deep sleep stage: 16 hours recording; for change in total time spent in REM sleep / change in total time spent in active wakefulness / change in total time spent in deep (rebound) sleep / change in total time spent in light sleep: vs vehicle

CC(N)Cc1ccccc1 (stereo not shown) [Amphetamine, amphetamine]
period of enhanced active wakefulness (rats, 1 mg/kg): 3 h | period of reduction in light, deep and REM sleep durations (rats, 1 mg/kg): 3 h | Duration (min) Active wake (rats, 1 mg/kg i.p.): 382.4 min | Duration (min) Deep sleep (rats, 1 mg/kg i.p.): 188.0 min | Duration (min) Light sleep (rats, 1 mg/kg i.p.): 242.7 min | Duration (min) Passive wake (rats, 1 mg/kg i.p.): 50.0 min | Duration (min) REM sleep (rats, 1 mg/kg i.p.): 88.6 min | Duration (min) intermediate stage (rats, 1 mg/kg i.p.): 4.0 min | ISWS/TST (%) (rats, 1 mg/kg i.p.): 45.1 ± 5.3 % | Latency (min) ISWS (rats, 1 mg/kg i.p.): 140.6 ± 13.4 min | Latency (min) REM sleep (rats, 1 mg/kg i.p.): 208.6 ± 14.4 min | Latency (min) dSWS (rats, 1 mg/kg i.p.): 161.7 ± 5.3 min | REMS/TST (%) (rats, 1 mg/kg i.p.): 16.9 ± 0.9% | Shifts (number) Shift from ISWS to AW (rats, 1 mg/kg i.p.): 198.8 number | Shifts (number) Shift from ISWS to PW (rats, 1 mg/kg i.p.): 64.4 number | Shifts (number) Shift from REMS to AW (rats, 1 mg/kg i.p.): 66.5 number | Shifts (number) Shift from REMS to PW (rats, 1 mg/kg i.p.): 5.8 number | Shifts (number) Shift from dSWS to AW (rats, 1 mg/kg i.p.): 11.7 number | Shifts (number) Shift from dSWS to PW (rats, 1 mg/kg i.p.): 37.7 number | Total sleep time TST (rats, 1 mg/kg i.p.): 523.3 ± 25.3 min | dSWS/TST (%) (rats, 1 mg/kg i.p.): 36.6 ± 5.7 % | change in mean duration of REM sleep stage (rats, 1 mg/kg): −16% | change in number of REM sleep epochs (rats, 1 mg/kg): −4% | change in number of active wake epochs (rats, 1 mg/kg): +27% | change in number of deep sleep epochs (rats, 1 mg/kg): +73% | change in number of light sleep epochs (rats, 1 mg/kg): −35% | change in total time spent in REM sleep (rats, 1 mg/kg): −4% | change in total time spent in active wakefulness (rats, 1 mg/kg): +27% | change in total time spent in deep (rebound) sleep (rats, 1 mg/kg): +73% | change in total time spent in light sleep (rats, 1 mg/kg): −35% | period of enhanced active wakefulness (rats, 3 mg/kg): 4 h | period of reduction in light, deep and REM sleep durations (rats, 3 mg/kg): 4 h | Duration (min) Active wake (rats, 3 mg/kg i.p.): 441.8 min | Duration (min) Deep sleep (rats, 3 mg/kg i.p.): 207.6 min | Duration (min) Light sleep (rats, 3 mg/kg i.p.): 187.9 min | Duration (min) Passive wake (rats, 3 mg/kg i.p.): 43.5 min | Duration (min) REM sleep (rats, 3 mg/kg i.p.): 71.4 min | Duration (min) intermediate stage (rats, 3 mg/kg i.p.): 4.0 min | ISWS/TST (%) (rats, 3 mg/kg i.p.): 38.3 ± 3.4 % | Latency (min) ISWS (rats, 3 mg/kg i.p.): 228.2 ± 25.0 min | Latency (min) REM sleep (rats, 3 mg/kg i.p.): 338.6 ± 24.3 min | Latency (min) dSWS (rats, 3 mg/kg i.p.): 242.0 ± 19.4 min | REMS/TST (%) (rats, 3 mg/kg i.p.): 14.7 ± 0.7% | Shifts (number) Shift from ISWS to AW (rats, 3 mg/kg i.p.): 178.7 number | Shifts (number) Shift from ISWS to PW (rats, 3 mg/kg i.p.): 62.4 number | Shifts (number) Shift from REMS to AW (rats, 3 mg/kg i.p.): 59.3 number | Shifts (number) Shift from REMS to PW (rats, 3 mg/kg i.p.): 3.3 number | Shifts (number) Shift from dSWS to AW (rats, 3 mg/kg i.p.): 14.8 number | Shifts (number) Shift from dSWS to PW (rats, 3 mg/kg i.p.): 26.6 number | Total sleep time TST (rats, 3 mg/kg i.p.): 460.9 ± 12.0 min | dSWS/TST (%) (rats, 3 mg/kg i.p.): 46.0 ± 3.0 % | change in mean duration of REM sleep stage (rats, 3 mg/kg): −23% | change in mean duration of deep sleep stage (rats, 3 mg/kg): −19% | change in number of REM sleep epochs (rats, 3 mg/kg): −22% | change in number of active wake epochs (rats, 3 mg/kg): +47% | change in number of deep sleep epochs (rats, 3 mg/kg): +91% | change in number of light sleep epochs (rats, 3 mg/kg): −49% | change in total time spent in REM sleep (rats, 3 mg/kg): −22% | change in total time spent in active wakefulness (rats, 3 mg/kg): +47% | change in total time spent in deep (rebound) sleep (rats, 3 mg/kg): +91% | change in total time spent in light sleep (rats, 3 mg/kg): −49% | period of enhanced active wakefulness (rats, 10 mg/kg): 6 h | period of reduction in light, deep and REM sleep durations (rats, 10 mg/kg): 6 h | Duration (min) Active wake (rats, 10 mg/kg i.p.): 498.7 min | Duration (min) Deep sleep (rats, 10 mg/kg i.p.): 181.2 min | Duration (min) Light sleep (rats, 10 mg/kg i.p.): 182.0 min | Duration (min) Passive wake (rats, 10 mg/kg i.p.): 35.6 min | Duration (min) REM sleep (rats, 10 mg/kg i.p.): 53.6 min | Duration (min) intermediate stage (rats, 10 mg/kg i.p.): 4.0 min | ISWS/TST (%) (rats, 10 mg/kg i.p.): 43.2 ± 5.7 % | Latency (min) ISWS (rats, 10 mg/kg i.p.): 284.7 ± 56.1 min | Latency (min) REM sleep (rats, 10 mg/kg i.p.): 440.8 ± 57.8 min | Latency (min) dSWS (rats, 10 mg/kg i.p.): 367.3 ± 5.5 min | REMS/TST (%) (rats, 10 mg/kg i.p.): 13.0 ± 0.9% | Shifts (number) Shift from ISWS to AW (rats, 10 mg/kg i.p.): 201.7 number | Shifts (number) Shift from ISWS to PW (rats, 10 mg/kg i.p.): 49.0 number | Shifts (number) Shift from REMS to AW (rats, 10 mg/kg i.p.): 50.0 number | Shifts (number) Shift from REMS to PW (rats, 10 mg/kg i.p.): 2.2 number | Shifts (number) Shift from dSWS to AW (rats, 10 mg/kg i.p.): 9.7 number | Shifts (number) Shift from dSWS to PW (rats, 10 mg/kg i.p.): 11.6 number | Total sleep time TST (rats, 10 mg/kg i.p.): 422.9 ± 19.5 min | dSWS/TST (%) (rats, 10 mg/kg i.p.): 42.9 ± 5.3 % | change in mean duration of REM sleep stage (rats, 10 mg/kg): −36% | change in mean duration of deep sleep stage (rats, 10 mg/kg): −30% | change in number of REM sleep epochs (rats, 10 mg/kg): −41% | change in number of active wake epochs (rats, 10 mg/kg): +66% | change in number of deep sleep epochs (rats, 10 mg/kg): +66% | change in number of light sleep epochs (rats, 10 mg/kg): −51% | change in total time spent in REM sleep (rats, 10 mg/kg): −41% | change in total time spent in active wakefulness (rats, 10 mg/kg): +66% | change in total time spent in deep (rebound) sleep (rats, 10 mg/kg): +66% | change in total time spent in light sleep (rats, 10 mg/kg): −51% | latencies of all sleep states (rats, 1, 3, 10 mg/kg): significantly increased | mean duration of light sleep (rats, 1, 3, and 10 mg/kg): not significantly modified | mean duration of active wake (rats, different doses (1, 3, 10 mg/kg)): not modified | period of increased wakefulness and reduced sleep states following administration (rats, dose-dependent, 1, 3, 10 mg/kg): 3 to 8 h | effect on the time spent in deep sleep stage (rats, reduced during 3-6 hours following the injection, then increased (rebound)): biphasic effect
